Some test systems named below: UACC-62; SN12C; SW-620; SF-268; Malme-3M; MOLT-4; HCT-15; COLO 205; SK-OV-3; RPMI-8226; MDA-MB-435; HOP-92; KM12; A498; TK-10; BT-549; SK-MEL-5; NCI-H226; SR.
Assay in all cases: NCI tumour cell line growth inhibition, 48 h

Here are results for twelve compounds from ChEMBL document CHEMBL1201862, “PubChem BioAssay data set” (2004).

Each structure is given as a SMILES string.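 48-hour exposure; five concentrations; linearly interpolated endpoints. GI50 is the concentration that inhibits growth by half.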 Active and inactive are the calls of the source. No stated cut-off is given here; in the data, active = GI50 up to about 1.1 µM and inactive = higher.

In the case of `COC(=O)CC(c1ccccc1)C(C#N)(OP1(=O)OC(c2ccccc2)C(C)N1C)c1ccccc1` (centres undefined), the GI50 in the test with UACC-62 is 47.5 µM (inactive); with SN12C, 30.1 µM (inactive); in the test on SW-620, 62.1 µM (inactive); with SF-268, > 100 µM (inactive); with Malme-3M, 56.1 µM (inactive); in the test with MOLT-4 it was 19.5 µM (inactive). The GI50 in the test on HCT-15 was 41.2 µM; with COLO 205, 21.3 µM (inactive); in the test on SK-OV-3, > 100 µM (inactive); in the test on RPMI-8226, 24.7 µM (inactive); in the test on MDA-MB-435 it was 43.4 µM (inactive); in the test on HOP-92 it was 94 µM (inactive). Besides, the GI50 in the test on KM12 is 35 µM (inactive); in the test on A498, 39.4 µM (inactive); in the test with TK-10, > 100 µM (inactive); in the test on BT-549, 64.4 µM (inactive); in the test on SK-MEL-5 it was 19 µM (inactive).

Consider `COC(=O)/C(=N\NC(=S)NN)C(C(=O)OC)C(=O)C(=O)Nc1cccc(C(F)(F)F)c1` (centres undefined), for which the GI50 with UACC-62 was > 100 µM (inactive); with SN12C, > 100 µM (inactive); in the test on SW-620, > 100 µM (inactive); with SF-268 it was > 100 µM (inactive); in the test on Malme-3M it was > 100 µM (inactive); with HCT-15, above 100 µM. Moreover, the GI50 in the test on SK-OV-3, in the test with RPMI-8226, in the test on MDA-MB-435, in the test with HOP-92, in the test with KM12 and in the test on A498 was > 100 µM (inactive) in each case. Also, the GI50 in the test on TK-10, in the test on BT-549, in the test with NCI-H226 and in the test with SK-MEL-5 was > 100 µM (inactive) in each case.

Take `COc1ccc(/N=N/C(=O)NC(CC(C)C)C(=O)NC(CC(C)C)C(=O)O)cc1` (centres undefined): the GI50 with UACC-62 is 16.6 µM (inactive); with SN12C, > 100 µM (inactive); in the test on SW-620, 67 µM (inactive); with SF-268 it was 16.9 µM (inactive); in the test with Malme-3M, 23.7 µM (inactive); in the test on MOLT-4, 41.6 µM (inactive). In addition, the GI50 was 19.5 µM in the test on HCT-15; 21.5 µM (inactive) with COLO 205; > 100 µM (inactive) in the test on RPMI-8226; 34.5 µM (inactive) with MDA-MB-435; > 100 µM (inactive) with HOP-92; 43.8 µM (inactive) in the test on KM12. The GI50 in the test on A498 is > 100 µM (inactive); with TK-10, > 100 µM (inactive); with BT-549, > 100 µM (inactive); with NCI-H226, > 100 µM (inactive); in the test on SK-MEL-5, 18.1 µM (inactive).

Turning to `CCOC(=O)c1c[nH]c2c(Sc3ccccc3)nccc2c1=O`, the GI50 with UACC-62 is 36.7 µM (inactive); in the test with SN12C, > 100 µM (inactive); with SW-620, > 100 µM (inactive); with SF-268 it was > 100 µM (inactive); with MOLT-4, 17.8 µM (inactive); in the test on HCT-15, above 100 µM. Besides, the GI50 was > 100 µM (inactive) in the test with COLO 205; > 100 µM (inactive) in the test on SK-OV-3; 39.6 µM (inactive) in the test on MDA-MB-435; 46.9 µM (inactive) with HOP-92; 44.6 µM (inactive) with KM12; > 100 µM (inactive) in the test on A498. In addition, the GI50 with TK-10 is > 100 µM (inactive); in the test on BT-549, 30.7 µM (inactive); in the test on NCI-H226 it was 95.3 µM (inactive); in the test with SK-MEL-5 it was 92.7 µM (inactive).

For `N#Cc1c2c([nH]c(=O)c1C#N)CCCC2`, the GI50 in the test with UACC-62, in the test with SN12C, in the test with SW-620, in the test on SF-268, with Malme-3M and in the test with MOLT-4 was > 100 µM (inactive) throughout. Besides, the GI50 was above 100 µM in the test on HCT-15; > 100 µM (inactive) in the test with COLO 205; > 100 µM (inactive) in the test on SK-OV-3; > 100 µM (inactive) with MDA-MB-435; 79.1 µM (inactive) with HOP-92; > 100 µM (inactive) in the test with KM12. The GI50 with A498, in the test on TK-10, with BT-549, with NCI-H226 and in the test with SK-MEL-5 was > 100 µM (inactive) in each case.

In the case of `CC(C)=C[C@H]1CCC2(OCCO2)[C@]1(C)COCc1ccccc1`, the GI50 with SN12C is 24.5 µM (inactive); with SW-620, 29.1 µM (inactive); in the test on SF-268, 48.9 µM (inactive); in the test with Malme-3M, 23.9 µM (inactive); in the test on MOLT-4, 13.8 µM (inactive); with HCT-15 it was 39.5 µM. In addition, the GI50 is 17.6 µM (inactive) in the test on COLO 205; 32.4 µM (inactive) in the test on SK-OV-3; 18.2 µM (inactive) with RPMI-8226; 26.4 µM (inactive) in the test with MDA-MB-435; 33.7 µM (inactive) in the test with KM12; 23.7 µM (inactive) with A498. Further, the GI50 in the test with TK-10 is 40.7 µM (inactive); in the test on BT-549 it was 42.7 µM (inactive); in the test on NCI-H226, 14.1 µM (inactive); with SK-MEL-5, 16.3 µM (inactive).

As to `O=C(CC(=O)N1N=C(N2c3ccccc3Sc3ccccc32)CC1c1ccccc1)Nc1ccccc1Cl` (centres undefined), the GI50 in the test with UACC-62 was > 100 µM (inactive); with SN12C it was > 100 µM (inactive); in the test with SW-620, > 100 µM (inactive); in the test on SF-268, > 100 µM (inactive); with MOLT-4 it was > 100 µM (inactive); in the test on HCT-15 it was above 100 µM. The GI50 in the test with COLO 205, with RPMI-8226, in the test with MDA-MB-435, with HOP-92, in the test on KM12 and in the test with A498 was > 100 µM (inactive) throughout. Moreover, the GI50 in the test with TK-10, in the test on BT-549, with NCI-H226 and with SK-MEL-5 was > 100 µM (inactive) each time.

For the compound `C/C(CC(O)(C(F)(F)F)C(F)(F)F)=N\N`, the GI50 with UACC-62, in the test with SN12C, in the test with SW-620, in the test on SF-268, in the test on Malme-3M and in the test with MOLT-4 was > 10 µM (inactive) in each case. Moreover, the GI50 was above 10 µM in the test with HCT-15; > 10 µM (inactive) in the test on COLO 205; > 10 µM (inactive) in the test with SK-OV-3; > 10 µM (inactive) in the test on RPMI-8226; > 10 µM (inactive) in the test on MDA-MB-435; > 10 µM (inactive) with HOP-92. In addition, the GI50 in the test on KM12, in the test on A498, with TK-10, in the test on BT-549, with NCI-H226 and with SK-MEL-5 was > 10 µM (inactive) each time.

`S=C1CSc2c(cnc3ccccc23)N1`: the GI50 with UACC-62, in the test with SN12C, with SF-268, in the test on Malme-3M, with MOLT-4 and in the test on SR was > 100 µM (inactive) each time. The GI50 in the test with HCT-15 is above 100 µM; in the test on COLO 205, > 100 µM (inactive); with SK-OV-3, > 100 µM (inactive); in the test on RPMI-8226, > 100 µM (inactive); in the test with MDA-MB-435, > 100 µM (inactive); with KM12 it was > 100 µM (inactive). The GI50 in the test with TK-10 was 35.1 µM (inactive); with BT-549, 71.4 µM (inactive); in the test on NCI-H226, 53.7 µM (inactive); in the test with SK-MEL-5 it was > 100 µM (inactive).

As for `Cc1ccc2c(c1)-c1nc(N)c(C#N)c(-c3ccccc3)c1CCS2(=O)=O`, the GI50 in the test with UACC-62 was 49.7 µM (inactive); in the test on SN12C it was 41.4 µM (inactive); in the test with SW-620, > 100 µM (inactive); with SF-268, 46.5 µM (inactive); in the test with Malme-3M, 23.8 µM (inactive); with HCT-15 it was 44.1 µM. Also, the GI50 with COLO 205 was > 100 µM (inactive); with RPMI-8226, > 100 µM (inactive); in the test on MDA-MB-435 it was > 100 µM (inactive); with HOP-92, 26.4 µM (inactive); in the test with KM12 it was > 100 µM (inactive); with A498 it was 28.8 µM (inactive). The GI50 with TK-10 was 23.7 µM (inactive); in the test on BT-549, 36.4 µM (inactive); in the test on NCI-H226, 24.3 µM (inactive); in the test with SK-MEL-5 it was > 100 µM (inactive).

`O=[N+]([O-])c1ccc2c(c1)nc(Cc1ccccc1)n2C[C@@H]1CCCN2CCCCC12` (some centres undefined): the GI50 with UACC-62 was 19.5 µM (inactive); in the test with SN12C, 48 µM (inactive); with SW-620 it was 40.4 µM (inactive); in the test with SF-268, 45.8 µM (inactive); in the test with Malme-3M, 14.2 µM (inactive); in the test on MOLT-4 it was 17.4 µM (inactive). The GI50 in the test on HCT-15 is 36.9 µM; in the test with COLO 205, 17.3 µM (inactive); with SK-OV-3 it was 34.4 µM (inactive); in the test with MDA-MB-435, 17.2 µM (inactive); in the test with HOP-92 it was 3.71 µM (inactive); in the test with KM12, 21.3 µM (inactive). The GI50 is 13.4 µM (inactive) with A498; 37.5 µM (inactive) in the test with TK-10; 26.7 µM (inactive) in the test on BT-549; 89.9 µM (inactive) in the test with NCI-H226; 16.5 µM (inactive) with SK-MEL-5.

With `CC(=O)OCC(OC(C)=O)C(OC(C)=O)C(OC(C)=O)C(C=NN(C(C)=O)S(=O)(=O)c1ccc(/C=C2\NC(=O)NC2=O)cc1)OC(C)=O` (centres undefined), the GI50 with UACC-62, in the test on SN12C, in the test with SW-620, in the test on SF-268, in the test with Malme-3M and in the test on MOLT-4 was > 100 µM (inactive) in each case. In addition, the GI50 was above 100 µM in the test with HCT-15; > 100 µM (inactive) in the test with COLO 205; > 100 µM (inactive) with SK-OV-3; > 100 µM (inactive) with RPMI-8226; > 100 µM (inactive) in the test with MDA-MB-435; > 100 µM (inactive) with KM12. Further, the GI50 with A498, in the test with TK-10, with BT-549, with NCI-H226 and in the test with SK-MEL-5 was > 100 µM (inactive) each time.
